Assay results: patent US12250947B2, “Substituted azaspiro-cycles as herbicides” (SYNGENTA CROP PROTECTION AG, priority 2019, dated 2025)

Experiments:
Format in all cases: in vivo
[1] = tested on: barley crop plants; assay: Crop phytotoxicity comparison, post-emergence, barley
Protocol: (§1) Seeds of a variety of test species are sown in standard soil in pots (Lolium perenne (LOLPE), Setaria faberi (SETFA), Alopecurus myosuroides (ALOMY), Echinochloa crus-galli (ECHCG), Avena fatua (AVEFA)). After cultivation for one day (pre-emergence) or after 8 days cultivation (post-emergence) under controlled conditions in a glasshouse (at 24/16° C., day/night; 14 hours light; 65% humidity), the plants are sprayed with an aqueous spray solution derived from the formulation of the technical active ingredient in acetone/water (50:50) solution containing 0.5% Tween 20 (polyoxyethelyene sorbitan monolaurate, CAS RN 9005-64-5). Compounds are applied at 250 g/h. The test plants are then grown in a glasshouse under controlled conditions in a glasshouse (at 24/16° C., day/night; 14 hours light; 65% humidity) and watered twice daily. After 13 days for pre and post-emergence, the test is evaluated for the percentage damage caused to the plant. The biological activities are shown in the following table on a five-point scale (5=80-100%; 4=60-79%; 3=40-59%; 2=20-39%; 1=0-19%). NT=not tested.
(§2) Using procedures outlines above, wheat and barley crop plants are treated, post-emergence with compounds A1 or A4 of the present invention or comparator compound C1 (Compound A-38 from WO2014/096289) at the application rates indicated. The compounds were also applied in conjunction with the safener compound cloquintocet-mexyl (CQC) at 50 g/ha.

[2] = tested on: Lolium perenne (LOLPE); assay: Herbicidal glasshouse test, pre-emergence, LOLPE; conditions: 250 g/Ha, evaluated after 13 days
Protocol: (§3) Seeds of a variety of test species are sown in standard soil in pots (Lolium perenne (LOLPE), Setaria faberi (SETFA), Alopecurus myosuroides (ALOMY), Echinochloa crus-galli (ECHCG), Avena fatua (AVEFA)). […] Compounds are applied at 250 g/h. The test plants are then grown in a glasshouse under controlled conditions in a glasshouse (at 24/16° C., day/night; 14 hours light; 65% humidity) and watered twice daily. After 13 days for pre and post-emergence, the test is evaluated for the percentage damage caused to the plant. […] NT=not tested.

[3] = tested on: Alopecurus myosuroides (ALOMY); assay: Herbicidal glasshouse test, pre-emergence, ALOMY; conditions: 250 g/Ha, evaluated after 13 days
Protocol: as §3

[4] = tested on: Alopecurus myosuroides (ALOMY); assay: Herbicidal glasshouse test, post-emergence, ALOMY; conditions: 250 g/Ha, evaluated after 13 days
Protocol: as §3

[5] = tested on: Echinochloa crus-galli (ECHCG); assay: Herbicidal glasshouse test, pre-emergence, ECHCG; conditions: 250 g/Ha, evaluated after 13 days
Protocol: as §3

[6] = tested on: Echinochloa crus-galli (ECHCG); assay: Herbicidal glasshouse test, post-emergence, ECHCG; conditions: 250 g/Ha, evaluated after 13 days
Protocol: as §3

[7] = tested on: Setaria faberi (SETFA); assay: Herbicidal glasshouse test, post-emergence, SETFA; conditions: 250 g/Ha, evaluated after 13 days
Protocol: as §3

[8] = tested on: Avena fatua (AVEFA); assay: Herbicidal glasshouse test, post-emergence, AVEFA; conditions: 250 g/Ha, evaluated after 13 days
Protocol: as §3

[9] = tested on: Lolium perenne (LOLPE); assay: Herbicidal glasshouse test, post-emergence, LOLPE; conditions: 250 g/Ha, evaluated after 13 days
Protocol: as §3

[10] = tested on: Setaria faberi (SETFA); assay: Herbicidal glasshouse test, pre-emergence, SETFA; conditions: 250 g/Ha, evaluated after 13 days
Protocol: as §3

[11] = tested on: wheat crop plants; assay: Crop phytotoxicity comparison, post-emergence, wheat
Protocol: as §1, §2

[12] = tested on: Avena fatua (AVEFA); assay: Herbicidal glasshouse test, pre-emergence, AVEFA; conditions: 250 g/Ha, evaluated after 13 days
Protocol: as §3

CC#Cc1cc(C)c(C2C(=O)CC3(CCN(C(=O)C(C)=O)CC3)CC2=O)c(C)c1 [Compound A1, 9-(2,6-dimethyl-4-prop-1-ynyl-phenyl)-3-(2-oxopropanoyl)-3-azaspiro[5.5]undecane-8,10-dione]
% phytotoxicity observed, Barley ([1]; rate 30 g/ha): 0% | % phytotoxicity observed, Barley ([1]; rate 60 g/ha): 0% | percentage damage caused to the plant, five-point scale, LOLPE [2]: 5 (5=80-100%) | percentage damage caused to the plant, five-point scale, ALOMY [3]: 5 (5=80-100%) | percentage damage caused to the plant, five-point scale, ALOMY [4]: 5 (5=80-100%) | percentage damage caused to the plant, five-point scale, ECHCG [5]: 5 (5=80-100%) | percentage damage caused to the plant, five-point scale, ECHCG [6]: 5 (5=80-100%) | percentage damage caused to the plant, five-point scale, SETFA [7]: 5 (5=80-100%) | percentage damage caused to the plant, five-point scale, AVEFA [8]: 5 (5=80-100%) | percentage damage caused to the plant, five-point scale, LOLPE [9]: 5 (5=80-100%) | percentage damage caused to the plant, five-point scale, SETFA [10]: 5 (5=80-100%) | % phytotoxicity observed, Wheat ([11]; rate 30 g/ha): 0% | % phytotoxicity observed, Wheat ([11]; rate 60 g/ha): 10% | % phytotoxicity observed, Wheat ([11]; rate 60 g/ha + safener cloquintocet-mexyl (CQC) at 50 g/ha): 0% | damage to the wheat and barley crops compared to prior art compound C1 ([11]; wheat and barley crops, summary of Table B3): significantly less damaging | percentage damage caused to the plant, five-point scale, AVEFA [12]: 5 (5=80-100%)
